Here are results for ten molecules from patent US5521315A, “Olefin substituted long chain compounds” (priority 1993, dated 1996).

Where “and” joins values, the source holds several entries; their conditions need not be identical. Equal values may be shown once. Entries after “also recorded” stand apart in the source; their conditions may differ. Read-outs that look alike come from different tables or passages of the source.

One series concerns mast cell degranulation. As to the kind of experiment: Serotonin release assay (inhibition of mast cell degranulation). In kind it is cell-based. The settings on record: 50 μM; for RELEASE-SPONT: average corrected for spontaneous release; for AVERAGE % RELEASE: average of duplicates; for inhibition at 50 µM: Mast cell. More on the design: INCORP / TOTAL: unit not given here. An excerpt:
A serotonin release assay is utilized to study the utility of the inventive compounds for treatment of asthma and allergy. […] This assay measures mast cell degranulation, which is an early phase reaction to allergen challenge. Mast cells grown in tissue culture are first loaded with ^3 H serotonin, which is incorporated into the granules in the cells. The mast cells are sensitized with antigen specific monoclonal IgE, and then triggered to degranulate with the specific antigen (dinitorphenolbound to BSA (DNP)). When the cells degranulate, ^3 H Serotonin is released into the medium, and can be measured directly. The ability of the inventive compounds to inhibit the degranulation response is determined by the decrease in ^3 H Serotonin released in the presence of drug and is represented as % INHIBITION.
Specifically, the serotonin release assay seeds 2×10^5 cells in 0.5 ml medium in duplicate for spontaneous release, IgE+DNP, IgE+DNP+EtOH (vehicle control), and inventive compounds. […] The cells are incubated for 18 hours at 37° C. in 5% CO2, washed twice with 0.5 ml Isotonic Buffer (25 mM disodium PIPES pH 7.1,100 mM NaCl, 5 mM KCl, 5 mM glucose, 0.4 mM MgCl2, 1mM CaCl2, 0.1% BSA), and sterile filtered. 250 μl Isotonic Buffer is added per well and the plates are equilibrated in an incubator for about 10 min. Drug is added and cells are activated with 40 ng/ml DNP-BSA (1 mg/ml Diluted 1:200 in Isotonic Buffer) for 45 minutes using 2 μl/250 μl. Spontaneous release is determined in incubated cells with 250 μl Isotonic Buffer for 45 minutes and the reaction is stopped by removing supernatant and centrifuging at ~4000 rpm in microfuge for 15 seconds to remove any detached cells. Released radiolableled serotonin is counted. To determine amount of ^3 H-serotonin incorporated into the cells, (a) remove Isotonic Buffer and lyse cells by adding 250 μl 1% Triton-X100 in PBS, (b) add to 5 ml scintillation fluid, (c) wash 2× with Triton/PBS, and (d) add washes to scintillation tube. Percent serotonin release is calculated by dividing the amount of released serotonin by the sum of incorporated plus released serotonin and correcting for spontaneous released serotonin. Compound inhibition is calculated by dividing the percent serotonin release in the presence of a compound by the percent serotonin release in the absence of the compound.
This assay is described above and provides an in vitro model for an allergy and asthma therapeutic product.

The test system of another series is human lymphocytes. As to the kind of experiment: CD3 blastogenesis assay. The format is cell-based. To be noted: IL-2 or CD3 blastogenesis; FIG. 13. The method, then: The CD3 blastogenesis assay is virtually identical to the IL-2 blastogenesis assay described herein, except a human anti-CD3 monoclonal antibody (4 μg/ml, Boehinger Manheimm) is used instead of human IL-2 and the cells are incubated for only three days.
This example illustrates various IC50 values of five inventive compounds as determined by an IL-2 blastogenesis assay described in example 44 above or a CD3 blastogenesis assay. The CD3 blastogenesis assay is virtually identical to the IL-2 blastogenesis assay described herein, except a human anti-CD3 monoclonal antibody (4 μg/ml, Boehinger Manheimm) is used instead of human IL-2 and the cells are incubated for only three days.

In series [1] the test system is CMV promoter activity in transformed (adenovirus) cells. Description: CMV promoter assay (gene transcription and translation; cytotoxicity in transformed cells). In kind it is cell-based. An excerpt: FIG. 18 illustrates data regarding proliferative activity of various inventive compounds for inducting CMV promoter activity. The CMV promoter assay measures gene transcription and translation activity wherein any active compounds will have cytotoxic activity to inhibit cellular protein synthesis machinery in transformed (adenovirus) cells.
This example illustrates data regarding proliferative activity of various inventive compounds for inducting CMV promoter activity. The CMV promoter assay measures gene transcription and translation activity wherein any active compounds will have cytotoxic activity to inhibit cellular protein synthesis machinery in transformed (adenovirus) cells.

In a further series the test system is murine thymocyte. As to the kind of experiment: Murine thymocyte stimulated by ConA and IL-2 (T cell immune suppression). The settings on record: FIGS. 8 and 9. The format is cell-based. As for the experimental part: A thymocyte costimulator assay is conducted to evaluate the inventive compounds to inhibit activation and proliferation of thymocytes caused by stimulation with Con A and interleukin-1 (IL-1), or […]. Thymuses are obtained from mice (e.g., female Balb/C mice) and the thymuses are removed and dissociated into culture media (e.g., RPMI 1640 without serum supplementation). The dissociated thymus tissue and cell suspension is transferred to centrifuge tubes and allowed to settle, washed with HBSS and resuspended in serum-supplemented culture media (e.g., RPMI 1640 with 10% fetal calf serum). Any contaminating red cells are lysed, and viable cells are resuspended and counted. Thymocytes are plated (e.g., 96-well plates at a density of 2×10^5 cells/well) and a stimulating agent, such as Con A, IL-1 (e.g., IL-1α) or IL-2 is added to the well. The cells are incubated for 4 days at 37° C. On the fourth day, the cells are pulsed with tritiated thymidine and cell proliferation determined. Inventive compounds are added at the time of stimulating agent addition.
A third assay measures an ability of an inventive compound to inhibit IL-2-induced proliferation of murine thymocytes. Thymus glands are obtained from 4-6 week old mice and plated as a single cell suspension into flat bottomed wells in RPMI 1640 medium supplemented with 10% fetal calf serum. The inventive compounds are added to appropriate wells and the cells are incubated for 1-2 hrs. Concanavilin A (ConA, 0.25 mg/ml) and […] (20 ng/ml) are added and the plates are incubated for 4 days. Cell proliferation is determined as above.
FIG. 8 compares T cell immune suppression data of thirteen inventive compounds by comparing their IC50 values in a murine thymocyte stimulated by ConA and IL-2 in vitro model.

In series [2] the test system is PBMC (peripheral blood mononuclear cells). As to the kind of experiment: Two-way mixed lymphocyte reaction (MLR), proliferation of PBMC to allogeneic stimulation. To be noted: FIGS. 1 and 2. The format is cell-based, human. An excerpt:
Various in vitro assays can be used to measure effects of the inventive compounds to module immune activity and have antitumor activity using a variety of cellular types. For example, a mixed lymphocyte reaction (MLR) provides a valuable screening tool to determine biological activity of each inventive compound. In the MLR, PBMCs (peripheral blood mononuclear cells) are obtained by drawing whole blood from healthy volunteers in a heparinized container and diluted with an equal volume of hanks balanced salt solution (HBSS). This mixture is layered on a […] density gradient, such as a Ficoll-Hypaque® gradient (specific gravity 1.08), and centrifuged at 1000×g for 25 minutes at room temperature or cooler. PBMC are obtained from a band at a plasma-Ficoll interface, separated and washed at least twice in a saline solution, such as HBSS. Contaminating red cells are lysed, such as by ACK lysis for 10 min at 37° C., and the PBMCs are washed twice in HBSS. The pellet of purified PBMCs is resuspended in complete medium, such as RPMI 1640 plus 20% human inactivated serum. Proliferative response of PBMC to allogeneic stimulation is determined in a two-way MLR performed in a 96-well microliter plate. Briefly, approximately 10^5 test purified PBMC cells in […] complete medium are co-cultured with approximately 10^5 autologous (control culture) or allogeneic (stimulated culture) PBMC cells, wherein the allogeneic cells are from HLA disparate individuals. Varying doses of compounds (drug) are added at the time of addition of cells to the microtiter plate. The cultures are incubated for 6 days at 37° C. in a 5% CO2 atmosphere. At the conclusion of the incubation tritiated thymidine is added (for example, […] of 40 to 60 Ci/mmole) and proliferation determined by liquid scintillation counting.
This example illustrates a mixed lymphocyte reaction assay of inventive compounds by showing the IC50 value of each compound in this assay and a dose response of several compounds to illustrate an IC50 determination.

Series [3] has as its system PBMC in mixed lymphocyte assay culture. As to the kind of experiment: Percent viable cells in mixed lymphocyte assay culture after six days. In kind it is cell-based, human. To be noted: 100 μM, six days of culture.

A word on the inhibition: it is the drop in the measured response relative to a control, in per cent. As a reminder, the IC50 is the midpoint of a concentration-inhibition curve. On to `CC/C=C/CCCCCn1c(=O)c2c(ncn2C)n(C)c1=O` [CT2512, 1-(6-trans-nonenyl)-3,7-dimethylxanthine], for which, in the series on mast cell degranulation, the “activity in serotonin release assay” value is recorded as “appears to increase the activity; also recorded: increases the activity”. Further, in the series on mast cell degranulation (Table 4), the RELEASE-SPONT came to 1.65%, the “AVERAGE % RELEASE” value is reported as 18.20% and the inhibition at 50 µM amounted to 79.5%. In addition, in the series on human lymphocytes, the “immune suppressing activity in blastogenesis assays” value was “significant immune suppressing activity”. This molecule also showed an IC50 in series [1] of 50 µM.
Turning to `CCCCC/C=C\C/C=C\CCCCCCCCn1c(=O)c2c(ncn2C)n(C)c1=O` [CT1524, 1-(cis,cis-9,12-octadecadienyl)-3,7-dimethylxanthine], the “activity in serotonin release assay” value in the series with mast cell degranulation is listed as “may be showing some toxicity at the concentration of 50 μM”. Also, in the series with mast cell degranulation (Table 4), the RELEASE-SPONT is listed as 13.90%, the “AVERAGE % RELEASE” value is 30.46% and the inhibition at 50 µM is -73.3%. Also, in the series on human lymphocytes, the “immune suppressing activity in blastogenesis assays” value is reported as “significant immune suppressing activity”. Further, the IC50 in series [1] stood at 50 µM. The “T cell immune suppressing activity” value in the series on murine thymocyte is “potent immune suppressing activity”. For the same molecule, the “mixed lymphocyte reaction activity” value in series [2] is “showed activity within dose ranges achievable in vivo”.
With `CC(C)=CCCC(C)=CCCC(C)=CCn1c(=O)c2c(ncn2C)n(C)c1=O` [CT2544, 1-(Farnesyl)-3,7-dimethylxanthine], in the series on mast cell degranulation (Table 4), the RELEASE-SPONT is on record as -1.11%, the “AVERAGE % RELEASE” value is 15.44% and the inhibition at 50 µM was 114%. The IC50 in series [1] is 20 µM. Moreover, in series [1] (Table 2 / FIG. 18), the “cytotoxicity ranking in CMV promoter assay” value is “the most cytotoxic compound tested”.
As to `C=CCCCCCCCn1c(=O)c2[nH]cnc2n(C)c1=O` [CT1405, 1-(8-nonenyl)-3-methylxanthine], in the series with mast cell degranulation (Table 4), the RELEASE-SPONT is listed as 5.13%, the “AVERAGE % RELEASE” value is reported as 21.69% and the inhibition at 50 µM was 36%. This molecule came in with an IC50 in series [1] of 100 µM.
As to `C=CCCCCCCCn1c(=O)ccn(C)c1=O` [CT1817, 3-(8-nonenyl)1-methyluracil], in the series with mast cell degranulation (Table 4), the RELEASE-SPONT was 3.57%, the “AVERAGE % RELEASE” value was found to be 20.12% and the inhibition at 50 µM stood at 55.5%. The IC50 in series [1] was 250 µM.
`C=CCCCCCCCCCn1c(=O)c2c(ncn2C)n(C)c1=O` [CT2501, 1-(10-undecenyl)-3,7-dimethylxanthine]: the “activity in serotonin release assay” value in the series on mast cell degranulation is reported as “the two most potent compounds in this group”. Also, in the series with mast cell degranulation (Table 4), the RELEASE-SPONT is on record as 2.50%, the “AVERAGE % RELEASE” value was 19.06% and the inhibition at 50 µM came to 68.8%. The “cytotoxicity in mixed lymphocyte assay culture” value in series [3] is recorded as “little or no cytotoxicity at concentrations well above its effective concentrations”. Moreover, the “immune suppressing activity in blastogenesis assays” value in the series with human lymphocytes is listed as “significant immune suppressing activity”. The IC50 in series [1] was 200 µM. For the same molecule, in series [2], the “mixed lymphocyte reaction activity” value was “showed activity within dose ranges achievable in vivo”.
In the case of `CC(C)=CCC/C(C)=C/Cn1c(=O)c2c(ncn2C)n(C)c1=O` [CT2545, 1-(Geranyl)-3,7-dimethylxanthine], in the series on mast cell degranulation (Table 4), the RELEASE-SPONT amounted to 2.49%, the “AVERAGE % RELEASE” value is given as 19.05% and the inhibition at 50 µM worked out at 68.9%. The molecule also registered an IC50 in series [1] of 75 µM.
As to `C=CCCn1c(=O)c2c(ncn2C)n(C)c1=O` [CT2503, 1-(3-butenyl)-3,7-dimethylxanthine], in the series on mast cell degranulation (Table 4), the RELEASE-SPONT is recorded as 4.87%, the “AVERAGE % RELEASE” value worked out at 21.43% and the inhibition at 50 µM came to 39.2%. Also, the IC50 in series [1] was above 500 µM.
For the molecule `CC/C=C\CCCCCn1c(=O)ccn(C)c1=O` [CT1814, 3-(6-cis-nonenyl)1-methyluracil], the “activity in serotonin release assay” value with mast cell degranulation is on record as “appears to decrease the activity”. In addition, in the series with mast cell degranulation (Table 4), the RELEASE-SPONT is reported as 5.94%, the “AVERAGE % RELEASE” value is given as 22.50% and the inhibition at 50 µM stood at 25.9%. The IC50 in series [1] came out at 100 µM.
As for `C=CCCCCn1c(=O)c2c(ncn2COC(=O)C(C)(C)C)n(C)c1=O` [CT1441, 1-(5-hexenyl)-3-methyl-7-methylpivaloylxanthine], the “activity in serotonin release assay” value in the series on mast cell degranulation was “appear to be quite potent”. Also, in the series on mast cell degranulation (Table 4), the “% INHIBITION” value amounted to 107.89% and the “AVERAGE % RELEASE” value came out at 15.92%. Also, in the series with mast cell degranulation (Table 4, duplicate wells), the “% RELEASE” value was 15.85% and 16.00%; the INCORP was 22567 and 24238; the RELEASE was 2125 and 2308; the “RELEASE X2” value was 4250 and 4616. For the same molecule, in the series with mast cell degranulation (Table 4, duplicate wells), the TOTAL was 26817 and 28854. Besides, in the series on mast cell degranulation (Table 5), the “% INHIBITION” value was determined as 107.89%. For the same molecule, the IC50 in series [1] (Table 2, read-out: IC50) came out at 300 µM. The “T cell immune suppressing activity” value in the series on murine thymocyte was “potent immune suppressing activity”.
